Source: ChEMBL document CHEMBL3243984, “Methotrexate analogues. 11. Unambiguous chemical synthesis and in vitro biological evaluation of alpha- and gamma-monoesters as potential prodrugs” (J Med Chem, 1978)
One block for each compound: values may come before it.

Assays:
[1] = system: CCRF-CEM; test: Growth inhibition of human CCRF-CEM cells; format: functional
[2] = system: Serum; test: Retention time in human serum at 150 mg after 72 hrs by HPLC analysis; format: ADME, cell-free
[3] = target: T1, Dihydrofolate reductase (Oryctolagus cuniculus) (UniProt C1JLF0); test: Inhibition of rabbit liver dihydrofolate reductase using [3H]-folic acid after 10 mins by scintillation counting
T1 sequence (whole entry): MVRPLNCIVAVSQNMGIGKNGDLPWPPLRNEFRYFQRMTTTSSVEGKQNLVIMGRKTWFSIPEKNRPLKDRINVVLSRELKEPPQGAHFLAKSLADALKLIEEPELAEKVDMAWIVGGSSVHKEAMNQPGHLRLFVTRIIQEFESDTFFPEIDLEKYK

[4] = system: Serum; test: Drug metabolism in human serum assessed as MTX alpha-monobutyl ester level at 150 mg after 72 hrs by HPLC analysis; format: ADME, cell-free
[5] = system: Serum; test: Drug metabolism in rat serum assessed as DBMTX level at 0.006 g after 2 hrs by TLC analysis; format: ADME, cell-free
[6] = Drug metabolism in human serum assessed as parent compound level at 0.006 g after 2 hrs by TLC analysis; format: ADME, cell-free; conditions: read-out: Drug metabolism
[7] = Drug metabolism in monkey serum assessed as parent compound level at 0.006 g after 48 hrs by TLC analysis; format: ADME, cell-free, Macaca mulatta; conditions: rhesus monkey, read-out: Drug metabolism
[8] = Drug metabolism in mouse serum assessed as parent compound level at 0.006 g after 24 hrs by TLC analysis; format: ADME, cell-free; conditions: read-out: Drug metabolism
[9] = Drug metabolism in monkey serum assessed as parent compound level at 0.006 g after 24 hrs by TLC analysis; format: ADME, cell-free, Macaca mulatta; conditions: rhesus monkey, read-out: Drug metabolism
[10] = Drug metabolism in human serum assessed as parent compound level at 0.006 g after 48 hrs by TLC analysis; format: ADME, cell-free; conditions: read-out: Drug metabolism
[11] = system: Serum; test: Drug metabolism in human serum assessed as MTX gamma-monobutyl ester level at 150 mg after 72 hrs by HPLC analysis; format: ADME, cell-free
[12] = system: Serum; test: Drug metabolism in mouse serum assessed as parent compound level at 0.006 g after 2 hrs by TLC analysis; format: ADME, cell-free
[13] = Drug metabolism in monkey serum assessed as parent compound level at 0.006 g after 6 hrs by TLC analysis; format: ADME, cell-free, Macaca mulatta; conditions: rhesus monkey, read-out: Drug metabolism
[14] = Drug metabolism in mouse serum assessed as parent compound level at 0.006 g after 48 hrs by TLC analysis; format: ADME, cell-free; conditions: read-out: Drug metabolism
[15] = system: Serum; test: Drug metabolism in rat serum assessed as MBMTX level at 0.006 g after 2 hrs by TLC analysis; format: ADME, cell-free
[16] = system: Serum; test: Drug metabolism in rat serum assessed as parent compound level at 0.006 g after 6 hrs by TLC analysis; format: ADME, cell-free
[17] = Drug metabolism in human serum assessed as parent compound level at 0.006 g after 24 hrs by TLC analysis; format: ADME, cell-free; conditions: read-out: Drug metabolism
[18] = Drug metabolism in monkey serum assessed as parent compound level at 0.006 g after 2 hrs by TLC analysis; format: ADME, cell-free, Macaca mulatta; conditions: rhesus monkey, read-out: Drug metabolism
[19] = system: Serum; test: Drug metabolism in rat serum assessed as parent compound level at 0.006 g after 48 hrs by TLC analysis; format: ADME, cell-free
[20] = system: Serum; test: Drug metabolism in mouse serum assessed as parent compound level at 0.006 g after 6 hrs by TLC analysis; format: ADME, cell-free
[21] = system: Serum; test: Drug metabolism in rat serum assessed as DBMTX level at 0.006 g after 48 hrs by TLC analysis; format: ADME, cell-free
[22] = system: Serum; test: Drug metabolism in rat serum assessed as parent compound level at 0.006 g after 2 hrs by TLC analysis; format: ADME, cell-free
[23] = Drug metabolism in human serum assessed as parent compound level at 0.006 g after 6 hrs by TLC analysis; format: ADME, cell-free; conditions: read-out: Drug metabolism
[24] = system: Serum; test: Drug metabolism in rat serum assessed as DBMTX level at 0.006 g after 6 hrs by TLC analysis; format: ADME, cell-free
[25] = system: Serum; test: Drug metabolism in rat serum assessed as MBMTX level at 0.006 g after 48 hrs by TLC analysis; format: ADME, cell-free
[26] = system: Serum; test: Drug metabolism in rat serum assessed as DBMTX level at 0.006 g after 24 hrs by TLC analysis; format: ADME, cell-free
[27] = system: Serum; test: Drug metabolism in rat serum assessed as parent compound level at 0.006 g after 24 hrs by TLC analysis; format: ADME, cell-free
[28] = system: Serum; test: Drug metabolism in rat serum assessed as MBMTX level at 0.006 g after 6 hrs by TLC analysis; format: ADME, cell-free
[29] = system: Serum; test: Drug metabolism in rat serum assessed as MBMTX level at 0.006 g after 24 hrs by TLC analysis; format: ADME, cell-free

SMILES: CCOC(=O)[C@H](CCC(=O)O)NC(=O)c1ccc(N(C)Cc2cnc3nc(N)nc(N)c3n2)cc1
ID50 [1]: 6.2 ×10⁻⁶ mol/L

SMILES: COC(=O)CC[C@H](NC(=O)c1ccc(N(C)Cc2cnc3nc(N)nc(N)c3n2)cc1)C(=O)OC
ID50 [1]: 0.4 ×10⁻⁶ mol/L

SMILES: COC(=O)CC[C@H](NC(=O)c1ccc(N(C)Cc2cnc3nc(N)nc(N)c3n2)cc1)C(=O)O
ID50 [1]: 0.43 ×10⁻⁶ mol/L

Retention_time [2]: 2 min
ID50 [3]: 9 ×10⁻⁹ mol/L
SMILES: CN(Cc1cnc2nc(N)nc(N)c2n1)c1ccc(C(=O)N[C@@H](CCC(=O)O)C(=O)O)cc1 [METHOTREXATE]
ID50 [1]: 0.006 ×10⁻⁶ mol/L

Drug metabolism [4]: metabolite_detected
Drug metabolism [5]: metabolite_detected
remaining at 2 h [6]: < 1%
remaining at 48 h [7]: 2%
remaining at 24 h [8]: 89%
remaining at 24 h [9]: < 1%
remaining at 48 h [10]: < 1%
Drug metabolism [11]: metabolite_detected
Drug metabolism [12]: 43%
remaining at 6 h [13]: < 1%
remaining at 48 h [14]: 93%
Drug metabolism [15]: metabolite_detected
Drug metabolism [16]: metabolite_detected
remaining at 24 h [17]: 1%
remaining at 2 h [18]: < 1%
Drug metabolism [19]: metabolite_detected
Drug metabolism [20]: 46%
Drug metabolism [21]: metabolite_detected
Drug metabolism [22]: metabolite_detected
remaining at 6 h [23]: < 1%
Drug metabolism [24]: metabolite_detected
Drug metabolism [25]: metabolite_detected
Drug metabolism [26]: metabolite_detected
Drug metabolism [27]: metabolite_detected
Drug metabolism [28]: metabolite_detected
Drug metabolism [29]: metabolite_detected
ID50 [3]: 1.4 ×10⁻⁷ mol/L
SMILES: CCCCOC(=O)CC[C@H](NC(=O)c1ccc(N(C)Cc2cnc3nc(N)nc(N)c3n2)cc1)C(=O)OCCCC
ID50 [1]: 0.057 ×10⁻⁶ mol/L

Retention_time [2]: 3.2 min
ID50 [3]: 1.7 ×10⁻⁸ mol/L
SMILES: CCCCOC(=O)CC[C@H](NC(=O)c1ccc(N(C)Cc2cnc3nc(N)nc(N)c3n2)cc1)C(=O)O
ID50 [1]: 0.76 ×10⁻⁶ mol/L

SMILES: CCOC(=O)CC[C@H](NC(=O)c1ccc(N(C)Cc2cnc3nc(N)nc(N)c3n2)cc1)C(=O)O
ID50 [1]: 0.58 ×10⁻⁶ mol/L

SMILES: CCOC(=O)CC[C@H](NC(=O)c1ccc(N(C)Cc2cnc3nc(N)nc(N)c3n2)cc1)C(=O)OCC
ID50 [1]: 0.012 ×10⁻⁶ mol/L

Retention_time [2]: 5.1 min
ID50 [3]: 1.7 ×10⁻⁸ mol/L
SMILES: CCCCOC(=O)[C@H](CCC(=O)O)NC(=O)c1ccc(N(C)Cc2cnc3nc(N)nc(N)c3n2)cc1
ID50 [1]: 2 ×10⁻⁶ mol/L
